From US20240092784A1, “CONDENSED HETEROCYCLIC COMPOUND” (NISSAN CHEMICAL CORPORATION, priority 2020, published 2024)

The molecules below were run against human SPR (Homo sapiens (Human), UniProt P35270) (assay: Evaluation Example 2: Measurement of human SPR inhibitory activity (seven concentrations, sepiapterin absorbance at 420 nm)). Conditions: sepiapterin absorbance, Table 41, read-out: concentration at 50% inhibition of human SPR (IC50).
Assay type: biochemical
Outline: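 Reactions ran 240 min at room temperature in 100 mM Tris-HCl pH 7.5 with 0.01% BSA. They contained tag-cleaved, E. coli-expressed full-length human SPR (diluted to 150 ng/mL), seven compound concentrations from 0.14 to 100 nM, and sepiapterin/NADPH added as a 120 μM/160 μM solution. Inhibition was calculated from sepiapterin absorbance at 420 nm.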

Chain of human SPR (P35270 whole entry): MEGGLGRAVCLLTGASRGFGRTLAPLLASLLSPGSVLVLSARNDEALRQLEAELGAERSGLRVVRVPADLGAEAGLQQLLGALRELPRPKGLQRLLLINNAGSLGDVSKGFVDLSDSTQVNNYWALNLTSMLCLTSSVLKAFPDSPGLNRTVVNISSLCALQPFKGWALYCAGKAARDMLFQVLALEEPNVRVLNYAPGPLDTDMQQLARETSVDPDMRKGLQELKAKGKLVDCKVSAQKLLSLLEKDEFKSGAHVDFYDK

Row | SMILES | IC50 [nM]
1 | CC(C)Cn1c(=O)c(C(=O)NC2CC2)c(O)n2ncc(/C=C/C(=O)N3CCCC34CC4)c12 [Synthesis Example 721, (E)-N-Cyclopropyl-7-hydroxy-4-isobutyl-5-oxo-3-(3-oxo-3-(4-azaspiro[2.4]heptan-4-yl)prop-1-en-1-yl)-4,5-dihydropyrazolo[1,5-a]pyrimidine-6-carboxamide] | 1.05
2 | CC(C)Cn1c(=O)c(C(=O)NC2CC2)c(O)n2ncc(/C=C/C(=O)N3C[C@@H](F)[C@@H](F)C3)c12 [Synthesis Example 722, N-Cyclopropyl-3-((E)-3-(cis-3,4-difluoropyrrolidin-1-yl)-3-oxoprop-1-en-1-yl)-7-hydroxy-4-isobutyl-5-oxo-4,5-dihydropyrazolo[1,5-a]pyrimidine-6-carboxamide] | 0.81
3 | CC(C)Cn1c(=O)c(C(=O)NC2CC2)c(O)n2ncc(/C=C/C(=O)N3CCc4cncnc43)c12 [Synthesis Example 724, (E)-N-Cyclopropyl-3-(3-(5,6-dihydro-7H-pyrrolo[2,3-d]pyrimidin-7-yl)-3-oxoprop-1-en-1-yl)-7-hydroxy-4-isobutyl-5-oxo-4,5-dihydropyrazolo[1,5-a]pyrimidine-6-carboxamide] | 1.03
4 | CC(C)Cn1c(=O)c(C(=O)NC2CC2)c(O)n2ncc(/C=C/C(=O)N3CCc4ccccc43)c12 [Synthesis Example 725, (E)-N-Cyclopropyl-7-hydroxy-3-(3-(indolin-1-yl)-3-oxoprop-1-en-1-yl)-4-isobutyl-5-oxo-4,5-dihydropyrazolo[1,5-a]pyrimidine-6-carboxamide] | 3.61
5 | CC(C)Cn1c(=O)c(C(=O)NC2CC2)c(O)n2ncc(/C=C/C(=O)N3CCN(C4CC(F)(F)C4)C[C@@H]3C)c12 [Synthesis Example 726, (S,E)-N-Cyclopropyl-3-(3-(4-(3,3-difluorocyclobutyl)-2-methylpiperazin-1-yl)-3-oxoprop-1-en-1-yl)-7-hydroxy-4-isobutyl-5-oxo-4,5-dihydropyrazolo[1,5-a]pyrimidine-6-carboxamide] | 1.35
6 | CC(C)Cn1c(=O)c(C(=O)NC2CC2)c(O)n2ncc(/C=C/C(=O)N3CCC[C@H]3c3ccccc3)c12 [Synthesis Example 727, (S,E)-N-Cyclopropyl-7-hydroxy-4-isobutyl-5-oxo-3-(3-oxo-3-(2-phenylpyrrolidin-1-yl)prop-1-en-1-yl)-4,5-dihydropyrazolo[1,5-a]pyrimidine-6-carboxamide] | 1.34
7 | CC(C)Cn1c(=O)c(C(=O)NC2CC2)c(O)n2ncc(/C=C/C(=O)N3CCOc4cnccc43)c12 [Synthesis Example 728, (E)-N-Cyclopropyl-3-(3-(2,3-dihydro-1H-pyrido[3,4-b][1,4]oxazin-1-yl)-3-oxoprop-1-en-1-yl)-7-hydroxy-4-isobutyl-5-oxo-4,5-dihydropyrazolo[1,5-a]pyrimidine-6-carboxamide] | 1.07
8 | CC(C)Cn1c(=O)c(C(=O)NC2CC2)c(O)n2ncc(/C=C/C(=O)N3CCOc4ncccc43)c12 [Synthesis Example 729, (E)-N-Cyclopropyl-3-(3-(2,3-dihydro-1H-pyrido[2,3-b][1,4]oxazin-1-yl)-3-oxoprop-1-en-1-yl)-7-hydroxy-4-isobutyl-5-oxo-4,5-dihydropyrazolo[1,5-a]pyrimidine-6-carboxamide] | 1.05
9 | CC(C)Cn1c(=O)c(C(=O)NC2CC2)c(O)n2ncc(/C=C/C(=O)N3CCC[C@H]3C(C)(C)O)c12 [Synthesis Example 730, (S,E)-N-Cyclopropyl-7-hydroxy-3-(3-(2-(2-hydroxypropan-2-yl)pyrrolidin-1-yl)-3-oxoprop-1-en-1-yl)-4-isobutyl-5-oxo-4,5-dihydropyrazolo[1,5-a]pyrimidine-6-carboxamide] | 1.26
10 | CC(C)Cn1c(=O)c(C(=O)NC2CC2)c(O)n2ncc(/C=C/C(=O)N3CCc4cc(F)ccc43)c12 [Synthesis Example 731, (E)-N-Cyclopropyl-3-(3-(5-fluoroindolin-1-yl)-3-oxoprop-1-en-1-yl)-7-hydroxy-4-isobutyl-5-oxo-4,5-dihydropyrazolo[1,5-a]pyrimidine-6-carboxamide] | 2.89
11 | CC(C)Cn1c(=O)c(C(=O)NC2CC2)c(O)n2ncc(/C=C/C(=O)N3CCc4cc(C#N)ccc43)c12 [Synthesis Example 732, (E)-3-(3-(5-Cyanoindolin-1-yl)-3-oxoprop-1-en-1-yl)-N-cyclopropyl-7-hydroxy-4-isobutyl-5-oxo-4,5-dihydropyrazolo[1,5-a]pyrimidine-6-carboxamide] | 1.7
12 | CC(C)Cn1c(=O)c(C(=O)NC2CC2)c(O)n2ncc(/C=C/C(=O)N3CCCC34CCN(C(=O)OC(C)(C)C)CC4)c12 [Synthesis Example 733, Tert-butyl (E)-1-(3-(6-(cyclopropylcarbamoyl)-7-hydroxy-4-isobutyl-5-oxo-4,5-dihydropyrazolo[1,5-a]pyrimidin-3-yl)acryloyl)-1,8-diazaspiro[4.5]decane-8-carboxylate] | 2.16
13 | CC(C)Cn1c(=O)c(C(=O)NC2CC2)c(O)n2ncc(/C=C/C(=O)N3CC(C#N)C3)c12 [Synthesis Example 734, (E)-3-(3-(3-Cyanoazetidin-1-yl)-3-oxoprop-1-en-1-yl)-N-cyclopropyl-7-hydroxy-4-isobutyl-5-oxo-4,5-dihydropyrazolo[1,5-a]pyrimidine-6-carboxamide] | 0.73
14 | CC(C)Cn1c(=O)c(C(=O)NC2CC2)c(O)n2ncc(/C=C/C(=O)N3CCc4cc(Br)ccc43)c12 [Synthesis Example 735, (E)-3-(3-(5-Bromoindolin-1-yl)-3-oxoprop-1-en-1-yl)-N-cyclopropyl-7-hydroxy-4-isobutyl-5-oxo-4,5-dihydropyrazolo[1,5-a]pyrimidine-6-carboxamide] | 7.3
15 | CC(C)Cn1c(=O)c(C(=O)NC2CC2)c(O)n2ncc(/C=C/C(=O)N3CCCC34CCN(C)CC4)c12 [Synthesis Example 736, (E)-N-Cyclopropyl-7-hydroxy-4-isobutyl-3-(3-(8-methyl-1,8-diazaspiro[4.5]decan-1-yl)-3-oxoprop-1-en-1-yl)-5-oxo-4,5-dihydropyrazolo[1,5-a]pyrimidine-6-carboxamide] | 1.07
16 | CC(=O)N1CCC2(CCCN2C(=O)/C=C/c2cnn3c(O)c(C(=O)NC4CC4)c(=O)n(CC(C)C)c23)CC1 [Synthesis Example 737, (E)-3-(3-(8-Acetyl-1,8-diazaspiro[4.5]decan-1-yl)-3-oxoprop-1-en-1-yl)-N-cyclopropyl-7-hydroxy-4-isobutyl-5-oxo-4,5-dihydropyrazolo[1,5-a]pyrimidine-6-carboxamide] | 1.9
17 | CC(C)Cn1c(=O)c(C(=O)NC2CC2)c(O)n2ncc(/C=C/C(=O)N3CCOc4ccncc43)c12 [Synthesis Example 738, (E)-N-Cyclopropyl-3-(3-(2,3-dihydro-4H-pyrido[4,3-b][1,4]oxazin-4-yl)-3-oxoprop-1-en-1-yl)-7-hydroxy-4-isobutyl-5-oxo-4,5-dihydropyrazolo[1,5-a]pyrimidine-6-carboxamide] | 1.39
18 | CC(C)Cn1c(=O)c(C(=O)NC2CC2)c(O)n2ncc(/C=C/C(=O)N3CCOc4ccccc43)c12 [Synthesis Example 739, (E)-N-Cyclopropyl-3-(3-(2,3-dihydro-4H-benz[b][1,4]oxazin-4-yl)-3-oxoprop-1-en-1-yl)-7-hydroxy-4-isobutyl-5-oxo-4,5-dihydropyrazolo[1,5-a]pyrimidine-6-carboxamide] | 1.54
19 | CC(C)Cn1c(=O)c(C(=O)NC2CC2)c(O)n2ncc(/C=C/C(=O)N3CCc4cnccc43)c12 [Synthesis Example 740, (E)-N-Cyclopropyl-3-(3-(2,3-dihydro-1H-pyrrolo[3,2-c]pyridin-1-yl)-3-oxoprop-1-en-1-yl)-7-hydroxy-4-isobutyl-5-oxo-4,5-dihydropyrazolo[1,5-a]pyrimidine-6-carboxamide] | 1.81
20 | CC(C)Cn1c(=O)c(C(=O)NC2CC2)c(O)n2ncc(/C=C/C(=O)N3C[C@@H](C)OC[C@@H]3C)c12 [Synthesis Example 741, N-Cyclopropyl-3-((E)-3-((2R,5S)-2,5-dimethylmorpholino)-3-oxoprop-1-en-1-yl)-7-hydroxy-4-isobutyl-5-oxo-4,5-dihydropyrazolo[1,5-a]pyrimidine-6-carboxamide] | 0.98
21 | CC(C)Cn1c(=O)c(C(=O)NC2CC2)c(O)n2ncc(/C=C/C(=O)N3CCc4ccncc43)c12 [Synthesis Example 742, (E)-N-Cyclopropyl-3-(3-(2,3-dihydro-1H-pyrrolo[2,3-c]pyridin-1-yl)-3-oxoprop-1-en-1-yl)-7-hydroxy-4-isobutyl-5-oxo-4,5-dihydropyrazolo[1,5-a]pyrimidine-6-carboxamide] | 1.59
22 | CC(C)Cn1c(=O)c(C(=O)NC2CC2)c(O)n2ncc(/C=C/C(=O)N3CC[C@@H](C(C)(C)O)C3)c12 [Synthesis Example 743, (R,E)-N-Cyclopropyl-7-hydroxy-3-(3-(3-(2-hydroxypropan-2-yl)pyrrolidin-1-yl)-3-oxoprop-1-en-1-yl)-4-isobutyl-5-oxo-4,5-dihydropyrazolo[1,5-a]pyrimidine-6-carboxamide] | 1.33
23 | CC(C)Cn1c(=O)c(C(=O)NC2CC2)c(O)n2ncc(/C=C/C(=O)N3CCN(CC4CC(F)(F)C4)C[C@@H]3C)c12 [Synthesis Example 744, (S,E)-N-Cyclopropyl-3-(3-(4-((3,3-difluorocyclobutyl)methyl)-2-methylpiperazin-1-yl)-3-oxoprop-1-en-1-yl)-7-hydroxy-4-isobutyl-5-oxo-4,5-dihydropyrazolo[1,5-a]pyrimidine-6-carboxamide] | 1.57
24 | CC(C)Cn1c(=O)c(C(=O)NC2CC2)c(O)n2ncc(/C=C/C(=O)N3CCN(CC4CC(F)(F)C4)C[C@H]3C)c12 [Synthesis Example 745, (R,E)-N-Cyclopropyl-3-(3-(4-((3,3-difluorocyclobutyl)methyl)-2-methylpiperazin-1-yl)-3-oxoprop-1-en-1-yl)-7-hydroxy-4-isobutyl-5-oxo-4,5-dihydropyrazolo[1,5-a]pyrimidine-6-carboxamide] | 1.85
